Assay results reported in patent publication US20240240224A1, “FLUORESCENT D-TYPE AMINO ACID METABOLISM MARKER-BASED METHOD FOR DETECTING ANTIBACTERIAL DRUG SENSITIVITY TEST” (priority 2020, published 2024).

How the values were obtained:
[1] = tested on: Staphylococcus aureus SA22; assay: FaAST with DAA-Cy5-2 probe; format: cell-based; details: unit assumed
Description: (§1) With reference to the flow chart of the rapid detection method of antimicrobial susceptibility test based on FDAA metabolic markers shown in FIG. 3, FDAA is used for the detection of antimicrobial susceptibility test of alveolar lavage fluid. The specific experimental steps are as follows: • 1. Mix bronchoalveolar lavage fluid (BALF, 10 ml) of patients with hospital acquired pneumonia with cation regulated broth medium (CAMHB, 10 ml) of twice the concentration to prepare the bacterial fluid to be tested. • 2. Add 45 μl antibiotic solutions of different concentrations to the 96-well plate separately (see Table 1 for antibiotic concentration gradient settings). • 3. Add 50 μl of the bacterial solution prepared in step 1 to the 96-well plate and mix well. • 4. Add 5 μl of 10 mM Cy5-DAA probe (final concentration 0.15 mM, see FIG. 1 for its structure) into each well, mix well, and then cultivate in dark for 2 hours. • 5. Add 200 μl PBS solution for dilution, and then use flow cytometry to detect the fluorescence intensity of each sample.
The specific steps are the same as in Example 5. […] The minimum inhibitory concentration of antibiotics was obtained according to the fluorescence signal intensity of flow detection, and the statistical results are shown in Table 7.

[2] = tested on: E. faecalis ATCC29212; details: cited from earlier work
[3] = tested on: E. faecium Ef28; assay: BMD susceptibility test; format: cell-based, Enterococcus faecium; details: unit assumed
[4] = tested on: S. aureus Sa22; assay: BMD susceptibility test; format: cell-based, Staphylococcus aureus; details: unit assumed
[5] = tested on: alveolar lavage fluid sample 0219, A. baumannii; assay: FaAST (FDAA) susceptibility test of patient alveolar lavage fluid; format: cell-based, Acinetobacter baumannii; details: unit assumed
Description: as §1
(§2) The results of antimicrobial susceptibility test of alveolar lavage fluid of seven patients using FDAA and BMD methods are shown in the following table. The drug-resistant bacteria are shown in bold.

[6] = tested on: alveolar lavage fluid sample 0204, A. baumannii; assay: as above; format: cell-based, Acinetobacter baumannii; details: unit assumed
Description: as §1, §2

[7] = tested on: alveolar lavage fluid sample 0130, A. baumannii; assay: as above; format: cell-based, Acinetobacter baumannii; details: unit assumed
Description: as §1, §2

[8] = tested on: alveolar lavage fluid sample 0206, A. baumannii; assay: as above; format: cell-based, Acinetobacter baumannii; details: unit assumed
Description: as §1, §2

[9] = tested on: E. faecium Ef28; assay: FaAST (FDAA metabolic labeling method); format: cell-based, Enterococcus faecium; details: unit assumed
Description: Take the colony to be tested that has been cultured overnight on the plate and fully mix it in normal saline to make a uniform bacterial solution. Dilute it into Cation-Adjusted Mueller Hinton Broth (CAMHB) culture medium to make a bacterial solution with OD600=0.05. • 2. Add 45 μl antibiotic solutions of different concentrations to 96-well plates (see Table 1 for antibiotic concentration gradient settings). • 3. Add 50 μl of the bacterial solution prepared in step 1 to the 96-well plate and mix well. • 4. Add 5 μl of 10 mM Cy5-DAA probe (final concentration 0.15 mM, see FIG. 1 for its structure) into each well, mix well, and cultivate in dark for 2 hours. • 5. Add 200 μl After PBS solution is diluted, the fluorescence intensity of each sample is detected by flow cytometry. […] The MIC (minimum inhibitory concentration) can be obtained by referring to this curve.

[10] = tested on: S. aureus Sa23; assay: BMD susceptibility test; format: cell-based, Staphylococcus aureus; details: unit assumed
[11] = tested on: E. faecium Ef26; assay: FaAST (FDAA metabolic labeling method); format: cell-based, Enterococcus faecium; details: unit assumed
Description: (§3) Take the colony to be tested that has been cultured overnight on the plate and fully mix it in normal saline to make a uniform bacterial solution. Dilute it into Cation-Adjusted Mueller Hinton Broth (CAMHB) culture medium to make a bacterial solution with OD600=0.05. • 2. Add 45 μl antibiotic solutions of different concentrations to 96-well plates (see Table 1 for antibiotic concentration gradient settings). • 3. Add 50 μl of the bacterial solution prepared in step 1 to the 96-well plate and mix well. • 4. Add 5 μl of 10 mM Cy5-DAA probe (final concentration 0.15 mM, see FIG. 1 for its structure) into each well, mix well, and cultivate in dark for 2 hours. • 5. Add 200 μl After PBS solution is diluted, the fluorescence intensity of each sample is detected by flow cytometry. The flow detection results are shown in FIG. 4-5, showing the curve of the change of antibiotic concentration gradient and fluorescence intensity. The MIC (minimum inhibitory concentration) can be obtained by referring to this curve.
(§4) Bacteria with antibiotic resistance are shown in bold in the following table.

[12] = tested on: E. faecium Ef26; assay: BMD susceptibility test; format: cell-based, Enterococcus faecium; details: unit assumed
[13] = tested on: S. aureus ATCC29213; details: cited from earlier work
[14] = tested on: E. faecalis ATCC29212; assay: FaAST (FDAA metabolic labeling method); format: cell-based, Enterococcus faecalis; details: unit assumed
Description: as §3, §4

[15] = tested on: alveolar lavage fluid sample 0203, K. pneumoniae; assay: BMD susceptibility test of patient alveolar lavage fluid; format: cell-based, Klebsiella pneumoniae; details: unit assumed
Text: as §2

[16] = tested on: alveolar lavage fluid sample 0226, K. pneumoniae; assay: as above; format: cell-based, Klebsiella pneumoniae; details: unit assumed
Text: as §2

[17] = tested on: S. aureus ATCC29213; assay: BMD susceptibility test; format: cell-based, Staphylococcus aureus; details: unit assumed
[18] = tested on: alveolar lavage fluid sample 0219, A. baumannii; assay: BMD susceptibility test of patient alveolar lavage fluid; format: cell-based, Acinetobacter baumannii; details: unit assumed
Text: as §2

[19] = tested on: alveolar lavage fluid sample 0130, A. baumannii; assay: as above; format: cell-based, Acinetobacter baumannii; details: unit assumed
Text: as §2

[20] = tested on: alveolar lavage fluid sample 0206, A. baumannii; assay: as above; format: cell-based, Acinetobacter baumannii; details: unit assumed
Text: as §2

[21] = tested on: S. aureus ATCC29213; assay: FaAST (FDAA metabolic labeling method); format: cell-based, Staphylococcus aureus; details: unit assumed
Description: as §3, §4

[22] = tested on: S. aureus Sa22; assay: FaAST (FDAA metabolic labeling method); format: cell-based, Staphylococcus aureus; details: unit assumed
Description: as §3, §4

[23] = tested on: S. aureus Sa23; assay: FaAST (FDAA metabolic labeling method); format: cell-based, Staphylococcus aureus; details: unit assumed
Description: as §3, §4

[24] = tested on: Staphylococcus aureus SA31; assay: VITEK drug sensitivity test; format: cell-based; details: unit assumed
[25] = tested on: E. faecalis ATCC29212; assay: BMD susceptibility test; format: cell-based, Enterococcus faecalis; details: unit assumed
[26] = tested on: Staphylococcus aureus SA22; assay: VITEK drug sensitivity test; format: cell-based; details: unit assumed
[27] = tested on: Staphylococcus aureus SA31; assay: FaAST with DAA-Tetra probe; format: cell-based; details: unit assumed
Description: The specific experimental steps are as follows: • 1. The tested colonies cultured overnight on the plate were picked and mixed thoroughly in 2× Cation-Adjusted Mueller Hinton Broth medium (2×CAMHB) to make bacterial suspension with turbidity of OD600=0.1. • 2. […] Add 50 μL of the bacterial solution prepared in step 1 (the final concentration of the bacterial solution is OD600=0.05) to the 96-well plate, and add 5 μL of 3 mM DAA-Tetra probe (the final concentration is 0.15 mM), mix well, and incubate in the dark at 37° C. 120 rpm for 2 hours. • 4. After culture, dilute the mixed bacterial solution 10 times with PBS solution, and detect the fluorescence intensity of each sample with flow cytometry. The flow detection result is shown in FIG. 14-19, and the arrow is for the MIC value. The minimum inhibitory concentration of antibiotics was obtained according to the fluorescence signal intensity of flow detection, and the statistical results are shown in Table 6.

[28] = tested on: alveolar lavage fluid sample 0203, K. pneumoniae; assay: FaAST (FDAA) susceptibility test of patient alveolar lavage fluid; format: cell-based, Klebsiella pneumoniae; details: unit assumed
Description: as §1, §2

[29] = tested on: alveolar lavage fluid sample 0226, K. pneumoniae; assay: as above; format: cell-based, Klebsiella pneumoniae; details: unit assumed
Description: as §1, §2

CC(=O)NC[C@H]1CN(c2ccc(N3CCOCC3)c(F)c2)C(=O)O1 [Linezolid, linezolid]
16 µg/mL: FaAST (MIC) [5] | FaAST (MIC) [28] | FaAST (MIC) [29]
32 µg/mL: BMD (MIC) [18]
2 µg/mL: BMD (MIC) [3] | BMD (MIC) [4] | FaAST (MIC) [9] | FaAST (MIC) [11] | BMD (MIC) [12] | FaAST (MIC) [14] | BMD (MIC) [17] | FaAST (MIC) [21]
8 µg/mL: BMD (MIC) [10] | FaAST (MIC) [23]
64 µg/mL: FaAST (MIC) [6] | FaAST (MIC) [7] | FaAST (MIC) [8] | BMD (MIC) [15] | BMD (MIC) [16] | BMD (MIC) [19]
1 µg/mL: FaAST (MIC) [22] | MIC, VITEK [24] | BMD (MIC) [25] | MIC, VITEK [26] | MIC, FaAST [27]
1-4: CLSI QC range [2] | CLSI QC range [13]
0.5 µg/mL: MIC, FaAST [1]
128 µg/mL: BMD (MIC) [20]
